# Where “and” joins values, the source holds several entries; their conditions need not be identical. Equal entries are not always repeated.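 Step 1: Grow cells in 96-well plates. Step 2: Expose to compound for 48 hours at 5 concentrations. Step 3: Interpolate endpoints linearly; if unreached, use highest concentration. GI50 = concentration required for 50% inhibition of growth. TGI: concentration producing complete growth inhibition.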
# How the values were obtained:
# Test in all cases: growth of human tumour cells (NCI), 48 h
# NCI-H522 lung = test system: NCI-H522 lung
# NCI-H23 lung = test system: NCI-H23 lung
# MCF7 breast = test system: MCF7 breast
# SN12C renal = test system: SN12C renal
# K-562 leukemia = test system: K-562 leukemia
# UACC-257 melanoma = test system: UACC-257 melanoma
# CAKI-1 renal = test system: CAKI-1 renal
# U251 CNS = test system: U251 CNS
# NCI-H460 lung = test system: NCI-H460 lung
# HOP-92 NSCLC = test system: HOP-92 NSCLC
Compound,GI50 (NCI-H522 lung),TGI (NCI-H522 lung),GI50 (NCI-H23 lung),TGI (NCI-H23 lung) [µM],GI50 (MCF7 breast),TGI (MCF7 breast) [µM],GI50 (SN12C renal),TGI (SN12C renal),GI50 (K-562 leukemia) [µM],TGI (K-562 leukemia) [µM],GI50 (UACC-257 melanoma),TGI (UACC-257 melanoma) [µM],GI50 (CAKI-1 renal),TGI (CAKI-1 renal),GI50 (U251 CNS),TGI (U251 CNS),GI50 (NCI-H460 lung),TGI (NCI-H460 lung),GI50 (HOP-92 NSCLC),TGI (HOP-92 NSCLC)
CCCCCCCCCCNC(=O)CI,0.151 µM,0.331 µM,0.929 µM,2.74,1.97 µM,4.59,1.21 µM,2.8 µM,0.938,3.95,1.63 µM,3.39,1.56 µM,3.55 µM,1.58 µM,3.14 µM,3.05 µM,9.66 µM,,
CCCc1cc(=O)n2c(C(=O)Nc3ccc(Cl)cc3C)c(C(=O)Nc3ccc(F)cc3)sc2n1,9.18 µM,67.5 µM,26.4 µM,> 150,4.67 µM,33.9,,,1.08,20.3,7.56 µM,42.4,7.77 µM,42.3 µM,1.51 µM,4.37 µM,20.8 µM,> 150 µM,0.166 µM,0.989 µM
COc1ccc(-c2nc(-c3cc(OC)cc(OC)c3)[nH]c2-c2ccc(OC)cc2)cc1,3.42 µM,59.3 µM,4.72 µM,> 100,3.77 µM,> 100,> 100 µM,> 100 µM,5.02,> 100,23.8 µM,> 100,6.24 µM,> 100 µM,,,5.98 µM,> 100 µM,,
COC(=O)C1C(O)C(C(=O)OC)C(C)N(C)C1C (stereo not drawn),,,,> 100,,> 100,,> 100 µM,,> 100,,> 100,,> 100 µM,,> 100 µM,,> 100 µM,,> 100 µM
COC(=O)C1=COC(C)C2CN3CCc4c([nH]c5ccccc45)C3CC12 (stereo not drawn),23.1 µM and 91.2 µM,78.5 µM and > 100 µM,33.8 µM and > 100 µM,> 100,32.1 µM and > 100 µM,> 100,17.9 µM and > 100 µM,38 µM and > 100 µM,,,34.2 µM and > 100 µM,> 100,21.2 µM and > 100 µM,85.6 µM and > 100 µM,24.6 µM and > 100 µM,81.4 µM and > 100 µM,24 µM and > 100 µM,58.8 µM and > 100 µM,18.3 µM and > 100 µM,77.4 µM and > 100 µM
COc1cc2c(/C=N\N=C(N)N)c[nH]c2cc1C,17.3 µM,32.9 µM,18.7 µM,53.5,13 µM,25.7,11.2 µM,37.5 µM,17.1,30.8,36.8 µM,> 100,37.5 µM,> 100 µM,13.2 µM,27.3 µM,14.7 µM,27.8 µM,,
O=C(Nc1cc(Nc2ncccc2-c2ncnc3nc[nH]c23)ccc1F)c1cc(C(F)(F)F)cc(C(F)(F)F)c1,2.38 µM,> 10 µM,1.45 µM,> 10,2.65 µM,> 10,2.73 µM,> 10 µM,0.4,> 10,0.474 µM,> 10,,,2.88 µM,> 10 µM,1.98 µM,5.31 µM,0.891 µM,3.92 µM
O=C(O)c1cccc(COc2ccc([N+](=O)[O-])cc2Cl)c1,18.4 µM,93 µM,,,> 100 µM,> 100,,,37.2,> 100,,,> 100 µM,> 100 µM,> 100 µM,> 100 µM,> 100 µM,> 100 µM,45.2 µM,> 100 µM
ClCCN(CCCl)c1ccc(CNc2ccccc2)cc1,4.85 µM,22 µM,9.59 µM,> 100,4.19 µM,> 100,4 µM,> 100 µM,8.66,> 100,12.7 µM,> 100,1.39 µM,> 100 µM,4.43 µM,> 100 µM,1.21 µM,> 100 µM,,
Cc1cc(N/N=C/c2ccccn2)nc2ccccc12,0.359 µM,4.81 µM,0.831 µM,22.2,0.316 µM,8.94,0.368 µM,17.3 µM,0.422,7.55,0.395 µM,5.02,0.313 µM,2.59 µM,0.378 µM,10.5 µM,0.349 µM,11.6 µM,,
CCCC(=O)C1=C(O)C(Cc2c(O)c(C)c(O)c(C(=O)CCC)c2O)=C(O)C(C)(C)C1=O,,,,> 50,,> 50,,> 50 µM,,48,,> 50,,> 50 µM,,> 50 µM,,43.1 µM,,> 50 µM
COC(c1ccc(C(C)(C)C)cc1)(c1ccc(C(C)(C)C)cc1)c1ccc(C(C)(C)C)cc1,,> 100 µM,,> 100,,> 100,,> 100 µM,,> 100,,,,> 100 µM,,> 100 µM,,> 100 µM,,
COC(=O)c1cc2c(o1)-c1nccc3c1c(nc1ccccc13)C2=O,,,5.66 µM,26.7,2.07 µM,15.6,4.04 µM,18.1 µM,,,3.68 µM,15.3,9.48 µM,32.3 µM,5.05 µM,38.9 µM,12.2 µM,35 µM,1.96 µM,17.7 µM
